Assay results published in ChEMBL document CHEMBL1201862, “PubChem BioAssay data set” (2004).
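Dose response: 5 concentrations. Exposure: 48 h. Format: 96-well plates. Endpoint: linear interpolation; highest concentration if not reached. GI50 is the concentration that inhibits growth by half.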 Active and inactive are the calls of the source. Cut-off read from the data, not from the text of the source: active = GI50 up to about 1.1 µM and inactive = higher.

How the values were obtained:
Test in all cases: NCI-60 cell line screen, 48 h
786-0 = test system: 786-0
A498 = test system: A498
A549 = test system: A549
ACHN = test system: ACHN
BT-549 = test system: BT-549
CAKI-1 = test system: CAKI-1
CCRF-CEM = test system: CCRF-CEM
COLO 205 = test system: COLO 205
DU-145 = test system: DU-145
EKVX = test system: EKVX
HCC 2998 = test system: HCC 2998
HCT-116 = test system: HCT-116
HCT-15 = test system: HCT-15
HL-60 = test system: HL-60
HOP-62 = test system: HOP-62
HOP-92 = test system: HOP-92
HT-29 = test system: HT-29
Hs-578T = test system: Hs-578T
IGROV-1 = test system: IGROV-1
K562 = test system: K562
KM12 = test system: KM12
M14 = test system: M14
MCF7 = test system: MCF7
MDA-MB-231 = test system: MDA-MB-231
MDA-MB-435 = test system: MDA-MB-435
MOLT-4 = test system: MOLT-4
NCI-H226 = test system: NCI-H226
NCI-H23 = test system: NCI-H23
NCI-H460 = test system: NCI-H460
NCI-H522 = test system: NCI-H522
NCI/ADR-RES = test system: NCI/ADR-RES
OVCAR-3 = test system: OVCAR-3
OVCAR-4 = test system: OVCAR-4
OVCAR-5 = test system: OVCAR-5
OVCAR-8 = test system: OVCAR-8
PC-3 = test system: PC-3
RPMI-8226 = test system: RPMI-8226
RXF 393 = test system: RXF 393
SF-268 = test system: SF-268
SF-295 = test system: SF-295
SF-539 = test system: SF-539
SK-MEL-28 = test system: SK-MEL-28
SK-MEL-2 = test system: SK-MEL-2
SK-MEL-5 = test system: SK-MEL-5
SK-OV-3 = test system: SK-OV-3
SN12C = test system: SN12C
SNB-19 = test system: SNB-19
SNB-75 = test system: SNB-75
SR = test system: SR
SW-620 = test system: SW-620
T47D = test system: T47D
TK-10 = test system: TK-10
U-251 = test system: U-251
UACC-257 = test system: UACC-257
UACC-62 = test system: UACC-62
UO-31 = test system: UO-31
LOX IMVI = test system: LOX IMVI
Malme-3M = test system: Malme-3M

Cc1oc2nc(N(C)C)n3cnnc3c2c1C
GI50 (786-0): > 100 µM (inactive) | GI50 (A498): > 100 µM (inactive) | GI50 (A549): > 100 µM (inactive) | GI50 (ACHN): > 100 µM (inactive) | GI50 (BT-549): > 100 µM (inactive) | GI50 (CAKI-1): > 100 µM (inactive) | GI50 (CCRF-CEM): > 100 µM (inactive) | GI50 (COLO 205): > 100 µM (inactive) | GI50 (DU-145): > 100 µM (inactive) | GI50 (EKVX): > 100 µM (inactive) | GI50 (HCC 2998): > 100 µM (inactive) | GI50 (HCT-116): > 100 µM (inactive) | GI50 (HCT-15): > 100 µM | GI50 (HL-60): > 100 µM (inactive) | GI50 (HOP-62): > 100 µM (inactive) | GI50 (HOP-92): > 100 µM (inactive) | GI50 (HT-29): > 100 µM (inactive) | GI50 (Hs-578T): > 100 µM (inactive) | GI50 (IGROV-1): > 100 µM (inactive) | GI50 (K562): > 100 µM (inactive) | GI50 (KM12): > 100 µM (inactive) | GI50 (M14): > 100 µM (inactive) | GI50 (MCF7): > 100 µM (inactive) | GI50 (MDA-MB-231): > 100 µM (inactive) | GI50 (MDA-MB-435): > 100 µM (inactive) | GI50 (MOLT-4): > 100 µM (inactive) | GI50 (NCI-H226): > 100 µM (inactive) | GI50 (NCI-H23): > 100 µM (inactive) | GI50 (NCI-H460): > 100 µM (inactive) | GI50 (NCI-H522): > 100 µM (inactive) | GI50 (NCI/ADR-RES): > 100 µM (inactive) | GI50 (OVCAR-3): > 100 µM (inactive) | GI50 (OVCAR-4): > 100 µM (inactive) | GI50 (OVCAR-5): > 100 µM (inactive) | GI50 (OVCAR-8): > 100 µM (inactive) | GI50 (PC-3): > 100 µM (inactive) | GI50 (RPMI-8226): > 100 µM (inactive) | GI50 (RXF 393): > 100 µM (inactive) | GI50 (SF-268): > 100 µM (inactive) | GI50 (SF-295): > 100 µM (inactive) | GI50 (SF-539): > 100 µM (inactive) | GI50 (SK-MEL-28): > 100 µM (inactive) | GI50 (SK-MEL-2): > 100 µM (inactive) | GI50 (SK-MEL-5): > 100 µM (inactive) | GI50 (SK-OV-3): > 100 µM (inactive) | GI50 (SN12C): > 100 µM (inactive) | GI50 (SNB-19): > 100 µM (inactive) | GI50 (SNB-75): 50.6 µM (inactive) | GI50 (SR): > 100 µM (inactive) | GI50 (SW-620): > 100 µM (inactive) | GI50 (T47D): > 100 µM (inactive) | GI50 (TK-10): > 100 µM (inactive) | GI50 (U-251): > 100 µM (inactive) | GI50 (UACC-257): > 100 µM (inactive) | GI50 (UACC-62): > 100 µM (inactive) | GI50 (UO-31): > 100 µM (inactive)

Cc1ccnc2nc(-c3ccc4ccccc4c3)cc(O)c12
GI50 (786-0): 1.52 µM (inactive) | GI50 (A498): 1.49 µM (inactive) | GI50 (A549): 1.4 µM (inactive) | GI50 (ACHN): 2.96 µM (inactive) | GI50 (BT-549): 5.32 µM (inactive) | GI50 (CCRF-CEM): 1.04 µM (active) | GI50 (COLO 205): 0.621 µM (active) | GI50 (DU-145): 4.1 µM (inactive) | GI50 (EKVX): 4.36 µM (inactive) | GI50 (HCC 2998): 1.65 µM (inactive) | GI50 (HCT-15): 0.43 µM | GI50 (HOP-62): 2.08 µM (inactive) | GI50 (HOP-92): 0.592 µM (active) | GI50 (HT-29): 0.8 µM (active) | GI50 (Hs-578T): 1.44 µM (inactive) | GI50 (IGROV-1): 1.2 µM (inactive) | GI50 (K562): 0.403 µM (active) | GI50 (KM12): 0.452 µM (active) | GI50 (LOX IMVI): 0.818 µM (active) | GI50 (M14): 1.22 µM (inactive) | GI50 (MCF7): 0.258 µM (active) | GI50 (MDA-MB-231): 1.67 µM (inactive) | GI50 (MOLT-4): 0.479 µM (active) | GI50 (Malme-3M): 1.14 µM (inactive) | GI50 (NCI-H226): 2.13 µM (inactive) | GI50 (NCI-H23): 2.56 µM (inactive) | GI50 (NCI-H522): 0.601 µM (active) | GI50 (NCI/ADR-RES): 1.3 µM (inactive) | GI50 (OVCAR-4): 1.71 µM (inactive) | GI50 (OVCAR-5): 6.3 µM (inactive) | GI50 (OVCAR-8): 2.83 µM (inactive) | GI50 (RPMI-8226): 0.641 µM (active) | GI50 (SF-268): 3.1 µM (inactive) | GI50 (SF-539): 1.22 µM (inactive) | GI50 (SK-MEL-28): 1.76 µM (inactive) | GI50 (SK-MEL-2): 0.865 µM (active) | GI50 (SK-OV-3): 1.09 µM (active) | GI50 (SN12C): 4.01 µM (inactive) | GI50 (SNB-19): 3.77 µM (inactive) | GI50 (SNB-75): 1.03 µM (active) | GI50 (SR): 0.296 µM (active) | GI50 (SW-620): 0.451 µM (active) | GI50 (T47D): 7.82 µM (inactive) | GI50 (TK-10): 1.75 µM (inactive) | GI50 (UACC-257): 6.75 µM (inactive) | GI50 (UACC-62): 0.531 µM (active) | GI50 (UO-31): 3.26 µM (inactive)
